The results in this text go back to US20160122342A1, “ENHANCER OF ZESTE HOMOLOG 2 INHIBITORS” (GLAXOSMITHKLINE INTELLECTUAL PROPERTY (NO.2) LIMITED, priority 2013, published 2016).

Each structure is given as a SMILES string. Structures can show the parent of a compound that is named as a salt.

In the first assay the target is T1, EZH2 within the PRC2 complex (Homo sapiens, UniProt Q15910).
T1 construct: FLAG; made in house; host or cells: Sf9 cells
T1 sequence (Q15910 whole entry): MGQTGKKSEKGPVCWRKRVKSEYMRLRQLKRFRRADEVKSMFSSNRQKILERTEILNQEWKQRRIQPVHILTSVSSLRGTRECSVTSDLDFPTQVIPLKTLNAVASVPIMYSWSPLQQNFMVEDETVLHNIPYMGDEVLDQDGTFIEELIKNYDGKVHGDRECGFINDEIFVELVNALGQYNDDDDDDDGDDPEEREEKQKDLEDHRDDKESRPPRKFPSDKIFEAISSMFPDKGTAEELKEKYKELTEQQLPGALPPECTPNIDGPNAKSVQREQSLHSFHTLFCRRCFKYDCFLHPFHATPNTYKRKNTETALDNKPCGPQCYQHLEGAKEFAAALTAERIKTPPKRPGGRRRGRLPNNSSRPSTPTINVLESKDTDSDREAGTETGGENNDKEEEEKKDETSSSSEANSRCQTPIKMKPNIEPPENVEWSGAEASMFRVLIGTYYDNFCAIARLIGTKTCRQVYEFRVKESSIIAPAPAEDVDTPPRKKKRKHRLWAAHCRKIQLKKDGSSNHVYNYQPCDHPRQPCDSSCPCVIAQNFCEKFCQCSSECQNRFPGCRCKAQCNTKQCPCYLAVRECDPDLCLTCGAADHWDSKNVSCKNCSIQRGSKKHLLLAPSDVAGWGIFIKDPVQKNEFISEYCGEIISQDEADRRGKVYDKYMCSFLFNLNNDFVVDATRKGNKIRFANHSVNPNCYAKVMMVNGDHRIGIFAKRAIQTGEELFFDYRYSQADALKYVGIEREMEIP
T1 sequence (O75530 whole entry partner): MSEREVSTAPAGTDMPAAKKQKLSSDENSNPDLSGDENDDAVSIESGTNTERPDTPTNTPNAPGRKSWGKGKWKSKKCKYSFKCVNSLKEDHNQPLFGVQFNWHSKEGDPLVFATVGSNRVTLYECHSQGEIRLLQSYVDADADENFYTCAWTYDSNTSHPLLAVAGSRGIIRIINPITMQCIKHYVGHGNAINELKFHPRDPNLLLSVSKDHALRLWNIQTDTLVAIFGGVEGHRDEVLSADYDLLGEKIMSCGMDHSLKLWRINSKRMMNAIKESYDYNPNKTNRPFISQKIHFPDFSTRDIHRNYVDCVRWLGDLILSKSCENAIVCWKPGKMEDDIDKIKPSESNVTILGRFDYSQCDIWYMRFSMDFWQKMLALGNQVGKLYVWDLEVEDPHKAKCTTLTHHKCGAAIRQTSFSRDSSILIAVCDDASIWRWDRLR
T1 sequence (Q15022 whole entry partner): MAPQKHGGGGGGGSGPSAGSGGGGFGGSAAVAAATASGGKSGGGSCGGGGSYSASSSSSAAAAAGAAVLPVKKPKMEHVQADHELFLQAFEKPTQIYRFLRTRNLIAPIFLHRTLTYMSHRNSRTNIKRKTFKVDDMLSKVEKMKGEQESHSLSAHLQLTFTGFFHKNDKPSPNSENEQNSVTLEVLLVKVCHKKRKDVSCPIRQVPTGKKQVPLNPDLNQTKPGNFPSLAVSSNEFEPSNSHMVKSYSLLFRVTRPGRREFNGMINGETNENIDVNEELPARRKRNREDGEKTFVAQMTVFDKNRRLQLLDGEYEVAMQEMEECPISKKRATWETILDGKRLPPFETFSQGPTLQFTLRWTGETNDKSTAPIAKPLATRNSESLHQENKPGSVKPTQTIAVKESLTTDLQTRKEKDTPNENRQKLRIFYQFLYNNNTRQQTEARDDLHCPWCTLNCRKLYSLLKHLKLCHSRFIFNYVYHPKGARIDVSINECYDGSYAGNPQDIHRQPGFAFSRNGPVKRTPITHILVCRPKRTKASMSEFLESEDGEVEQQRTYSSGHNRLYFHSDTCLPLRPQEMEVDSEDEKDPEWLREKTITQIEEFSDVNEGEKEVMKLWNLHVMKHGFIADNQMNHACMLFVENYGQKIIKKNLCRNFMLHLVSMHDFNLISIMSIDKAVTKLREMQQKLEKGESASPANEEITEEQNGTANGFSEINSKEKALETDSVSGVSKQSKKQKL
T1 sequence (Q09028 whole entry partner): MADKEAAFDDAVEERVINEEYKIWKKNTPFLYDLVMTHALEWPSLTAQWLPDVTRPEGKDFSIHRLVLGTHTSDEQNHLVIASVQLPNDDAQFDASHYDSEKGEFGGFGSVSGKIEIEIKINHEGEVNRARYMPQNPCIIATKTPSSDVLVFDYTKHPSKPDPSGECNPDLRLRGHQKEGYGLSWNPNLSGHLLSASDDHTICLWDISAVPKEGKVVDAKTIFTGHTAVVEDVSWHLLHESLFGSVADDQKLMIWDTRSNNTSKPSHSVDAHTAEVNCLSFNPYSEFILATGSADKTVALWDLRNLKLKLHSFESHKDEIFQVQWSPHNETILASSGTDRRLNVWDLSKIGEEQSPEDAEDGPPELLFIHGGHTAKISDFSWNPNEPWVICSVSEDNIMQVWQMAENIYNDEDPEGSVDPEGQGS
T1 sequence (Q6ZN18 whole entry partner): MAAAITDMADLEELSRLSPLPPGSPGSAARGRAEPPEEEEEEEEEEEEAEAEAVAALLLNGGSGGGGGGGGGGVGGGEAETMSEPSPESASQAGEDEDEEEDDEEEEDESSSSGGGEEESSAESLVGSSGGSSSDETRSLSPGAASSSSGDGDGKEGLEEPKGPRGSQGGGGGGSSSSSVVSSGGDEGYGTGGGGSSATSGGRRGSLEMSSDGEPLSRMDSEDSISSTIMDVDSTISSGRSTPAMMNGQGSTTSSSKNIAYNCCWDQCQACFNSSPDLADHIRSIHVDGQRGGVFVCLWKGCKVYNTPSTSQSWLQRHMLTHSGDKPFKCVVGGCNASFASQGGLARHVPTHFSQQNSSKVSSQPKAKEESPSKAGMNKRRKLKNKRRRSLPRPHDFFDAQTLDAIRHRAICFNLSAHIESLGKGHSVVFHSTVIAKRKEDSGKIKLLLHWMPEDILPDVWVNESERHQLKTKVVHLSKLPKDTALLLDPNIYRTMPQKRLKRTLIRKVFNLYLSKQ
In words: Assay Protocol 2: EZH2 methyltransferase scintillation proximity assay, biotinylated histone H3 peptide substrate. It is filed as biochemical. The following applies: SPA, 3H-SAM, biotinylated unmethylated histone H3K27 peptide substrate, 5-member PRC2 complex. On the procedure: Compounds contained herein were evaluated for their ability to inhibit the methyltransferase activity of EZH2 within the PRC2 complex. […] The peptides were captured on streptavidin-coated SPA beads and the resulting signal was read on a ViewLux plate reader. • 4. Prepare 10 mM stock of compounds from solid in 100% DMSO. • 5. […] Dispense 10 nL of compound from the dilution plate into reaction plates (Corning, 384-well polystyrene NBS, Cat#3673). Prepare the following solutions: • 7. 1× Base Buffer, 50 mM Tris-HCl, pH 8, 2 mM MgCl2: Per 1 L of base buffer, combine 1 M Tris-HCl, pH 8 (50 mL), 1 M MgCl2 (2 mL), and distilled water (948 mL). • 8. 1× Assay Buffer: Per 10 mL of 1× Assay Buffer, combine 1× Base Buffer (9.96 mL), 1 M DTT (40 uL), and 10% Tween-20 (1 uL) to provide a final concentration of 50 mM Tris-HCl, pH 8, 2 mM MgCl2, 4 mM DTT, 0.001% Tween-20. • 9. 2× Enzyme Solution: […] SPA Bead Solution: Per 1 mL of SPA Bead Solution, combine Streptavidin coated SPA beads (PerkinElmer, Cat# RPNQ0261, 40 mg) and 1× Assay Buffer (1 mL) to provide a working concentration of 40 mg/mL. • 11. 2× Substrate Solution: Per 10 mL of 2× Substrate Solution, combine 40 mg/mL SPA Bead Solution (375 uL), 1 mM biotinylated histone H3K27 peptide (200 uL), 12.5 uM 3H-SAM (240 uL; 1 mCi/mL), 1 mM cold SAM (57 uL), and 1× Assay Buffer (9.13 mL) to provide a final concentration of 0.75 mg/mL SPA Bead Solution, 10 uM biotinylated histone H3K27 peptide, 0.15 uM 3H-SAM (˜12 uCi/mL 3H-SAM), and 2.85 uM cold SAM. • 12. 2.67× Quench Solution: Per 10 mL of 2.67× Quench Solution, combine 1× Assay Buffer (9.73 mL) and 10 mM cold SAM (267 uL) to provide a final concentration of 100 uM cold SAM. • 3. […] Dispense 5 uL/well of 1× Assay Buffer to column 18 (low control reactions). • 11. Dispense 5 uL/well of 2× Substrate Solution to columns 1-24 (note: substrate solution should be mixed to ensure homogeneous bead suspension before dispensing into matrix reservoir). • 12. Dispense 5 uL/well of 2× Enzyme Solution to columns 1-17, 19-24. • 13. Incubate the reaction for 60 min at room temperature. • 5. Dispense 6 uL/well of the 2.67× Quench Solution to columns 1-24. • 6. Seal assay plates and spin for ˜1 min at 500 rpm. • 7. Dark adapt plates in the ViewLux instrument for 15-60 min. • 2. Read the assay plates on the Viewlux Plate Reader utilizing the 613 nm emission filter or clear filter (300 s exposure). Reagent addition can be done manually or with automated liquid handler. Percent inhibition was calculated relative to the DMSO control for each compound concentration and the resulting values were fit using standard IC50 fitting parameters within the ABASE data fitting software package.
On the technique in general: Scintillation proximity formats need no separation of bound from free tracer.
For the molecule `CCN(c1cccc2c1C/C=C/CCc1cc(C)[nH]c(=O)c1CNC2=O)[C@H]1CC[C@H](O)CC1` [Example 79, (E)-10-(ethyl(trans-4-hydroxycyclohexyl)amino)-3-methyl-5,6,15,16-tetrahydrobenzo[c]pyrido[4,3-j][1]azacyclododecine-1,14(2H,9H)-dione], half-maximal inhibition (IC50) required 126 nM.

The molecule `CCN(c1cccc2c1C/C=C/CCc1cc(C)[nH]c(=O)c1CNC2=O)[C@H]1CC[C@@H](N2CC(F)(F)C2)CC1` [Example 80, (E)-10-((cis-4-(3,3-difluoroazetidin-1-yl)cyclohexyl)(ethyl)amino)-3-methyl-5,6,15,16-tetrahydrobenzo[c]pyrido[4,3-j][1]azacyclododecine-1,14(2H,9H)-dione] came in with a concentration for half-maximal inhibition (IC50) of 200 nM.

Regarding `CCN(c1cccc2c1C/C=C/CCc1cc(C)[nH]c(=O)c1CNC2=O)[C@H]1CC[C@H](N2CC(F)(F)C2)CC1` [Example 81, (E)-10-((trans-4-(3,3-difluoroazetidin-1-yl)cyclohexyl)(ethyl)amino)-3-methyl-5,6,15,16-tetrahydrobenzo[c]pyrido[4,3-j][1]azacyclododecine-1,14(2H,9H)-dione], the IC50 stood at 200 nM.

`CCN(c1cccc2c1C/C=C/CCc1cc(C)[nH]c(=O)c1CNC2=O)[C@H]1CC[C@@H](NCCC(F)(F)F)CC1` [Example 82, (E)-10-(ethyl(cis-4-((3,3,3-trifluoropropyl)amino)cyclohexyl)amino)-3-methyl-5,6,15,16-tetrahydrobenzo[c]pyrido[4,3-j][1]azacyclododecine-1,14(2H,9H)-dione] displayed an IC50 of 251 nM.

As to `CCN(c1cccc2c1C/C=C/CCc1cc(C)[nH]c(=O)c1CNC2=O)[C@H]1CC[C@H](NCCC(F)(F)F)CC1` [Example 83, (E)-10-(ethyl(trans-4-((3,3,3-trifluoropropyl)amino)cyclohexyl)amino)-3-methyl-5,6,15,16-tetrahydrobenzo[c]pyrido[4,3-j][1]azacyclododecine-1,14(2H,9H)-dione], it took 158 nM to reach half-maximal inhibition (IC50).

`Cc1cc2c(c(=O)[nH]1)CNC(=O)c1cccc(O[C@H]3CC[C@H](N(C)C)CC3)c1C/C=C/CC2` [Example 84, (E)-10-((trans-4-(dimethylamino)cyclohexyl)oxy)-3-methyl-5,6,15,16-tetrahydrobenzo[c]pyrido[4,3-j][1]azacyclododecine-1,14(2H,9H)-dione] returned an IC50 of 200 nM.

On to `Cc1cc2c(c(=O)[nH]1)CNC(=O)c1cccc(O[C@H]3CC[C@H](N(C)C)CC3)c1C/C=C\CC2` [Example 85, (Z)-10-((trans-4-(dimethylamino)cyclohexyl)oxy)-3-methyl-5,6,15,16-tetrahydrobenzo[c]pyrido[4,3-j][1]azacyclododecine-1,14(2H,9H)-dione], for which the IC50 stood at 5010 nM.

Take `CCN(c1cccc2c1C/C=C/CCc1cc(C)[nH]c(=O)c1CNC2=O)[C@H]1CC[C@@H](N2CCOCC2)CC1` [Example 86, (E)-10-(ethyl(cis-4-morpholinocyclohexyl)amino)-3-methyl-5,6,15,16-tetrahydrobenzo[c]pyrido[4,3-j][1]azacyclododecine-1,14(2H,9H)-dione]: the IC50 was 200 nM.

For a further assay, the target named is T1, EZH2 within the PRC2 complex. In words: Assay Protocol 1: EZH2 methyltransferase scintillation proximity assay, mononucleosome substrate. Format: biochemical.
Settings: not given
As to the method: Compounds contained herein were evaluated for their ability to inhibit the methyltransferase activity of EZH2 within the PRC2 complex. […] Mononucleosomes were captured on SPA beads and the resulting signal is read on a ViewLux plate reader. • 1. Prepare 10 mM stock of compounds from solid in 100% DMSO. • 2. […] Dispense 100 nL of compound from the dilution plate into reaction plates (Grenier Bio-One, 384-well, Cat#784075). Prepare the following solutions: • 1. 50 mM Tris-HCl, pH 8: Per 1 L of base buffer, combine 1 M Tris-HCl, pH 8 (50 mL) and distilled water (950 mL). • 2. 1× Assay Buffer: […] SPA Bead Suspension: […] Per 10 mL of 2× Substrate Solution, combine 1× Assay Buffer (9728.55 uL), 800 ug/mL mononucleosomes (125 uL), 1 mM cold SAM (4 uL), and 7.02 uM 3H-SAM (142.45 uL; 0.55 mCi/mL) to provide a final concentration of 5 ug/mL nucleosomes, 0.2 uM cold SAM, and 0.05 uM 3H-SAM. • 6. 2.67× Quench/Bead Mixture: Per 10 mL of 2.67× Quench/Bead Mixture, combine ddH2O (9358 uL), 10 mM cold SAM (267 uL), 40 mg/mL Bead Suspension (375 uL) to provide a final concentration of 100 uM cold SAM and 0.5 mg/mL SPA beads. • 1. Dispense 100 nL/well of 100× Compound to test wells (as noted above). • 2. […] • 1. Dispense 5 uL/well of 1× Assay Buffer to column 18 (low control reactions). • 2. Dispense 5 uL/well of 2× Enzyme Solution to columns 1-17, 19-24. • 3. Spin assay plates for ˜1 minute at 500 rpm. • 4. Stack the assay plates, covering the top plate. • 5. Incubate the compound/DMSO with the enzyme for 30 minutes at room temperature. • 6. Dispense 5 uL/well of 2× Substrate Solution to columns 1-24. • 7. Spin assay plates for ˜1 minute at 500 rpm. • 8. Stack the assay plates, covering the top plate. • 9. Incubate the assay plates at room temperature for 1 hour. • 1. Dispense 5 uL/well of the 3× Quench/Bead Mixture to columns 1-24. • 2. Seal the top of each assay plate with adhesive TopSeal. • 3. Spin assay plates for ˜1 minute at 500 rpm. • 4. […] • 1. Read the assay plates on the Viewlux Plate Reader utilizing the 613 nm emission filter with a 300 s read time. Reagent addition can be done manually or with automated liquid handler. The final DMSO concentration in this assay is 1%. The positive control is in column 6; negative control is in column 18. Final starting concentration of compounds is 100 μM. Percent inhibition was calculated relative to the DMSO control for each compound concentration and the resulting values were fit using standard IC50 fitting parameters within the ABASE data fitting software package.
Take `Cc1cc2c(c(=O)[nH]1)CNC(=O)c1cc(Cl)cc(O[C@H]3CC[C@H](N)CC3)c1C/C=C\CC2` [Example 4, (Z)-10-((trans-4-aminocyclohexyl)oxy)-12-chloro-3-methyl-5,6,15,16-tetrahydrobenzo[c]pyrido[4,3-j][1]azacyclododecine-1,14(2H,9H)-dione hydrochloride]: the IC50 came out at 2510 nM.

Staying with this assay, now noted: Assay Protocol 1; SPA, 3H-SAM, Histone H3 of mononucleosome purified from HeLa cells; 5-member PRC2 complex; read-out: EZH2 IC50.
With `Cc1cc2c(c(=O)[nH]1)CNC(=O)c1cc(Cl)cc(O[C@H]3CC[C@H](N(C)C)CC3)c1C/C=C\CC2` [Example 5, (Z)-12-chloro-10-((trans-4-(dimethylamino)cyclohexyl)oxy)-3-methyl-5,6,15,16-tetrahydrobenzo[c]pyrido[4,3-j][1]azacyclododecine-1,14(2H,9H)-dione], the IC50 came out at 2510 nM.

`CCN(c1cccc2c1C/C=C\CCc1cc(C)[nH]c(=O)c1CNC2=O)C1CCOCC1` [Example 7, (Z)-10-(ethyl(tetrahydro-2H-pyran-4-yl)amino)-3-methyl-5,6,15,16-tetrahydrobenzo[c]pyrido[4,3-j][1]azacyclododecine-1,14(2H,9H)-dione hydrochloride, 0.10 1,4-dioxane solvate]: the IC50 came to 1590 nM.

Take `CCN(c1cccc2c1C/C=C/CN(C)Cc1cc(C)[nH]c(=O)c1CNC2=O)C1CCOCC1` [Example 10, (E)-11-(ethyl(tetrahydro-2H-pyran-4-yl)amino)-3,6-dimethyl-5,6,7,10,16,17-hexahydro-1H-benzo[h]pyrido[4,3-c][1,6]diazacyclotridecine-1,15(2H)-dione]: the IC50 was determined as 1000 nM.

Take `CCN(c1cccc2c1CCCCOCc1cc(C)[nH]c(=O)c1CNC2=O)C1CCOCC1` [Example 11, 11-(ethyl(tetrahydro-2H-pyran-4-yl)amino)-3-methyl-7,8,9,10,16,17-hexahydrobenzo[h]pyrido[4,3-c][1,6]oxaazacyclotridecine-1,15(2H,5H)-dione]: the IC50 was 501 nM.

`CCN(c1cccc2c1C/C=C\COc1cc(C)[nH]c(=O)c1CNC2=O)C1CCOCC1` [Example 13, (Z)-10-(ethyl(tetrahydro-2H-pyran-4-yl)amino)-3-methyl-6,9,15,16-tetrahydro-1H-benzo[g]pyrido[4,3-b][1,5]oxaazacyclododecine-1,14(2H)-dione]: the IC50 worked out at 794 nM.

Turning to `COc1cc(Cl)cc2c1C/C=C/CCc1cc(C)[nH]c(=O)c1CNC2=O` [Example 15, (E)-12-chloro-10-methoxy-3-methyl-5,6,15,16-tetrahydrobenzo[c]pyrido[4,3-j][1]azacyclododecine-1,14(2H,9H)-dione], the IC50 is 501 nM.

By IC50 is commonly meant the concentration that inhibits the measured activity by half.
